Measurements as given in ChEMBL document CHEMBL1201862, “PubChem BioAssay data set” (2004).
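A five-concentration, 48-hour dose response in 96-well plates underlies each endpoint, interpolated linearly between surrounding concentrations. Here, GI50 denotes the concentration required for 50% inhibition of growth.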 The source made the active and inactive calls. Rule as the data show it: active = GI50 up to about 1.1 µM and inactive = higher.

Assays:
Test in all cases: growth of human tumour cells (NCI), 48 h
Malme-3M = tested on: Malme-3M
M19-MEL = tested on: M19-MEL
UACC-257 = tested on: UACC-257
XF498 = tested on: XF498
K562 = tested on: K562
DMS-273 = tested on: DMS-273
ACHN = tested on: ACHN
CAKI-1 = tested on: CAKI-1
UO-31 = tested on: UO-31
RPMI-8226 = tested on: RPMI-8226
OVCAR-8 = tested on: OVCAR-8
SK-MEL-5 = tested on: SK-MEL-5
KM12 = tested on: KM12
MOLT-4 = tested on: MOLT-4
U-251 = tested on: U-251
OVCAR-4 = tested on: OVCAR-4
HOP-92 = tested on: HOP-92
COLO 205 = tested on: COLO 205
786-0 = tested on: 786-0
NCI-H23 = tested on: NCI-H23
SN12C = tested on: SN12C
HOP-18 = tested on: HOP-18
M14 = tested on: M14
HCC 2998 = tested on: HCC 2998
HCT-116 = tested on: HCT-116
DLD-1 = tested on: DLD-1
UACC-62 = tested on: UACC-62
HL-60 = tested on: HL-60
EKVX = tested on: EKVX
SNB-78 = tested on: SNB-78
SNB-75 = tested on: SNB-75
DMS-114 = tested on: DMS-114
SK-OV-3 = tested on: SK-OV-3
SF-268 = tested on: SF-268
NCI-H460 = tested on: NCI-H460
A549 = tested on: A549
OVCAR-5 = tested on: OVCAR-5
TK-10 = tested on: TK-10
SK-MEL-28 = tested on: SK-MEL-28
HCT-15 = tested on: HCT-15
NCI-H226 = tested on: NCI-H226
HT-29 = tested on: HT-29
OVCAR-3 = tested on: OVCAR-3
IGROV-1 = tested on: IGROV-1
LXFL 529 = tested on: LXFL 529
RXF 393 = tested on: RXF 393
SF-295 = tested on: SF-295
SR = tested on: SR
SK-MEL-2 = tested on: SK-MEL-2
SF-539 = tested on: SF-539
LOX IMVI = tested on: LOX IMVI
CCRF-CEM = tested on: CCRF-CEM
HOP-62 = tested on: HOP-62
A498 = tested on: A498
KM-20L2 = tested on: KM-20L2
NCI-H522 = tested on: NCI-H522
SNB-19 = tested on: SNB-19

In the case of CN(C)CC1CCC(=C2CCCC2)C1=O (configuration not stated), the GI50 (Malme-3M) is reported as 5.62 µM (inactive), the GI50 (M19-MEL) is reported as 16.8 µM (inactive) and the GI50 (UACC-257) is reported as 17.4 µM (inactive). For the same compound, the GI50 (XF498) was 6.84 µM (inactive), the GI50 (K562) was 2.86 µM (inactive) and the GI50 (DMS-273) was 18.3 µM (inactive). For the same compound, the GI50 (ACHN) was 8.18 µM (inactive), the GI50 (CAKI-1) was > 100 µM (inactive) and the GI50 (UO-31) was 18.3 µM (inactive). For the same compound, the GI50 (RPMI-8226) was 0.859 µM (active), the GI50 (OVCAR-8) was 20 µM (inactive) and the GI50 (SK-MEL-5) was 17.9 µM (inactive). The GI50 (KM12) was 10.9 µM (inactive), the GI50 (MOLT-4) was 2.76 µM (inactive) and the GI50 (U-251) was > 10 µM (inactive). For the same compound, the GI50 (OVCAR-4) was 16.7 µM (inactive), the GI50 (HOP-92) was 5 µM (inactive) and the GI50 (COLO 205) was 14.9 µM (inactive). The GI50 (786-0) was 7.52 µM (inactive), the GI50 (NCI-H23) was 20 µM (inactive) and the GI50 (SN12C) was 10.7 µM (inactive). For the same compound, the GI50 (HOP-18) was 16.7 µM (inactive), the GI50 (M14) was 8.3 µM (inactive) and the GI50 (HCC 2998) was 18.2 µM (inactive). The GI50 (HCT-116) was 13.6 µM (inactive), the GI50 (DLD-1) was 2.82 µM (inactive) and the GI50 (UACC-62) was 17.3 µM (inactive). The GI50 (HL-60) was 3.51 µM (inactive), the GI50 (EKVX) was 18.6 µM (inactive) and the GI50 (SNB-78) was 12.6 µM (inactive). For the same compound, the GI50 (SNB-75) was 16.2 µM (inactive), the GI50 (DMS-114) was 8.81 µM (inactive) and the GI50 (SK-OV-3) was > 100 µM (inactive). The GI50 (SF-268) was 12.4 µM (inactive), the GI50 (NCI-H460) was 21.7 µM (inactive) and the GI50 (A549) was 20.5 µM (inactive). For the same compound, the GI50 (OVCAR-5) was 17 µM (inactive), the GI50 (TK-10) was 11.5 µM (inactive) and the GI50 (SK-MEL-28) was 14.4 µM (inactive). For the same compound, the GI50 (HCT-15) was 5.65 µM, the GI50 (NCI-H226) was 17.9 µM (inactive) and the GI50 (HT-29) was 12.5 µM (inactive). For the same compound, the GI50 (OVCAR-3) was 13.5 µM (inactive), the GI50 (IGROV-1) was 17.6 µM (inactive) and the GI50 (LXFL 529) was 3.24 µM (inactive). For the same compound, the GI50 (RXF 393) was 10.5 µM (inactive), the GI50 (SF-295) was > 100 µM (inactive) and the GI50 (SR) was 4.47 µM (inactive). The GI50 (SK-MEL-2) was 18.4 µM (inactive), the GI50 (SF-539) was 20 µM (inactive) and the GI50 (LOX IMVI) was 16.6 µM (inactive). For the same compound, the GI50 (CCRF-CEM) was 3.03 µM (inactive), the GI50 (HOP-62) was 14.3 µM (inactive) and the GI50 (A498) was 18.7 µM (inactive). The GI50 (KM-20L2) was 18.7 µM (inactive), the GI50 (NCI-H522) was 1.71 µM (inactive) and the GI50 (SNB-19) was > 63.7 µM (inactive).
